# Read-outs that look alike come from different tables or passages of the source.
# Key:
# BALBc mice [1] = test: Cumulative PASI score (erythema, scales, thickness) of imiquimod-treated mice; format: in vivo; details: day 7; maximum of 12 points; Group 1, imiquimod only
# Protocol: (§1) The effect of HSP was tested on mice (BALBc mice, male 10-12 weeks old) The mice were divided in 5 groups of eight mice each: […] Group 2: mice were treated for 6 days as group 1. […] Group 3: mice were treated for 6 days as group 2, except for the cream comprising 250 μg/ml HSP (100 μg HSP per dose) Group 4: mice were treated as group 2 except for the carrier cream comprising no Hsp70. (mice were treated for six days, twice a day, once four hours before treatment with imiquimod, once four hours after treatment with imiquimod. Group 5: control group, no cream application. Day 1: initial evaluation for visible signs of psoriasis. […] Animal backs were shaved and photographs were taken. were assessed by the PASI score. On day 7, photographs of all animals (backs) were taken to document progression of the disease. Study groups on ordinal and continuous outcomes were compared using the Kruskal-Wallis test with a […] adjustment for pairwise group comparisons for an overall statistical significance criteria of 0.05 for each outcome.
# BALBc mice [2] = test: Ear pinnae thickness in mice treated with imiquimod cream with or without HSP70 cream; format: in vivo; details: Group 1, imiquimod 5% cream only, 3.125 mg daily dose
# Protocol: as §1, with “taken. Thickness of both ear pinnae were measured. Cream application was performed creams. All animals” for “taken.”, “and examined once daily for behavioural changes and adverse effects. Ear pinnae measurements are performed daily. Skin changes” for “by the PASI score. On day 7, photographs of all animals (backs) were taken to document progression of the disease.”
# BALBc mice [3] = test: Histology of back skin samples: average epidermal thickness of the treated skin; format: in vivo; details: day 7, Group 1, imiquimod only
# Protocol: (§2) Group 1: mice were treated for 6 days on shaved back and right ear with one daily application of imiquimod 5% cream to the skin (3.125 mg daily dose)
# (§3) Group 2: mice were treated for 6 days as group 1. In addition the part of the skin to which imiquimod was applied was treated twice daily with the cream comprising 50 μg/ml HSP (20 μg HSP per dose). Each day, the cream comprising HSP70 was applied to the skin in a 1 mm layer, 4 hours before application of the imiquimod, and again 4 hours after treatment with imiquimod.
# Day 7: The animals were euthanized and skin tissue and blood was processed. Inflammatory markers were measured with Q-PCR (skin samples). Skin samples were histologically examined. […]
# patients = details: cited from earlier work
# BALBc mice [4] = test: Visual appearance (scaling) of the backs of the mice, FIG. 1; format: in vivo; details: after 6 days of treatment
# Protocol: as §2, §3
# From left to right: Group 2 (20 μg HSP), Group 3 (100 μg HSP), Group 4 (carrier cream only) and Group 1 (imiquimod only)
compound,measurement,setting,value
CC(C)Cn1cnc2c(N)nc3ccccc3c21 [imiquimod],cumulative PASI score,BALBc mice [1],6.5
same,ear thickness,BALBc mice [2]; Day 1,0.21 mm
same,ear thickness,BALBc mice [2]; Day 5,0.28 mm
same,ear thickness,BALBc mice [2]; Day 6,0.37 mm
same,ear thickness,BALBc mice [2]; Day 7,0.40 mm
same,average epidermal thickness of the treated skin,BALBc mice [3],58 μm
same,remote site skin reaction: edema,patients; in females,1%
same,remote site skin reaction: erythema,patients; in females,3%
same,remote site skin reaction: ulceration,patients; in females,2%
same,remote site skin reaction: edema,patients; in males,1%
same,remote site skin reaction: erosion,patients; in males,2%
same,remote site skin reaction: erythema,patients; in males,1%
same,remote site skin reaction: induration,patients; in males,1%
same,remote site skin reaction: scaling/excoriation/flaking,patients; in males,1%
same,"remote site reactions: bleeding, burning, itching, pain, dryness, scabbing, crusting, redness, hardening of the skin, tenderness, tinea cruris",patients; in vivo,more than 1 % of patients
same,scaling of the backs of the mice,BALBc mice [4],severely scaled
